Our source for the T/C values is PubChem BioAssay AID330 (DTP/NCI, 2004).

Values joined by “and” are separate entries in the source; they are usually repeats but may differ in a detail not shown here. Identical values can stand only once. Inconclusive results and toxic doses are left out.

The assay relates to P388 leukemia ip, CD2F1 mice, survival T/C. Kind of assay: NCI In Vivo Anticancer Drug Screen. Data for tumor model P388 Leukemia (intraperitoneal) in CD2F1 (CDF1) mice. The note with it: endpoint: median survival time, higher = longer survival. The procedure, abridged: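 Mice carrying the transplanted tumor received test compound or vehicle. Survival was recorded in each group, and the value is the treated-group measurement divided by that of the vehicle-treated control group.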

The mark [1] stands for this setting: dose: 50.0 mg/kg/injection, schedule: Q01DX005 (ip), vehicle: saline with Tween-80.
Setting [2] is: dose: 100.0 mg/kg/injection, schedule: Q01DX005 (ip), vehicle: saline with Tween-80.
The mark [3] stands for this setting: dose: 200.0 mg/kg/injection, schedule: Q01DX005 (ip), vehicle: saline with Tween-80.
Where [4] appears, read: dose: 50.0 mg/kg/injection, schedule: Q01DX009 (ip), vehicle: saline with Tween-80.
[5] abbreviates: dose: 100.0 mg/kg/injection, schedule: Q01DX009 (ip), vehicle: saline with Tween-80.
Where [6] appears, read: dose: 200.0 mg/kg/injection, schedule: Q01DX009 (ip), vehicle: saline with Tween-80.
[7] abbreviates: dose: 100.0 mg/kg/injection, schedule: Q04DX003 (ip), vehicle: saline with Tween-80.
Setting [8] is: dose: 100.0 mg/kg/injection, schedule: Q01DX001 (ip), vehicle: Klucel (hydroxypropylcellulose) (HPC).
Where [9] appears, read: dose: 30.0 mg/kg/injection, schedule: Q01DX005 (ip), vehicle: saline with Tween-80.
[10] abbreviates: dose: 60.0 mg/kg/injection, schedule: Q01DX005 (ip), vehicle: saline with Tween-80.
Setting [11] is: dose: 120.0 mg/kg/injection, schedule: Q01DX005 (ip), vehicle: saline with Tween-80.
The mark [12] stands for this setting: dose: 240.0 mg/kg/injection, schedule: Q01DX005 (ip), vehicle: saline with Tween-80.

As to `CCC(c1ccc(OCC(=O)OCCNCCCl)cc1)C(CC)c1ccc(OCC(=O)OCCNCCCl)cc1` (stereo not given), the T/C reads like this: (dose: 25.0 mg/kg/injection, schedule: Q04DX002 (ip), vehicle: saline) 101 % of control; (dose: 50.0 mg/kg/injection, schedule: Q04DX002 (ip), vehicle: saline) 97 % of control; (dose: 100.0 mg/kg/injection, schedule: Q04DX002 (ip), vehicle: saline) 101 % of control; (dose: 100.0 mg/kg/injection, schedule: Q04DX002 (ip), vehicle: suspension in saline) 97 % of control; (dose: 200.0 mg/kg/injection, schedule: Q04DX002 (ip), vehicle: suspension in saline) 87 % of control.

For the molecule `Cc1c(C)c2ccccc2[nH]c1=O`, the T/C was 101 % of control (dose: 50.0 mg/kg/injection, schedule: Q01DX009 (ip), vehicle: Klucel (hydroxypropylcellulose) (HPC)); 104 % of control (dose: 100.0 mg/kg/injection, schedule: Q01DX009 (ip), vehicle: Klucel (hydroxypropylcellulose) (HPC)); 113 % of control (dose: 200.0 mg/kg/injection, schedule: Q01DX009 (ip), vehicle: Klucel (hydroxypropylcellulose) (HPC)); 100 % of control (dose: 400.0 mg/kg/injection, schedule: Q01DX009 (ip), vehicle: Klucel (hydroxypropylcellulose) (HPC)).

In the case of `O=C(Nc1cccc2c1C(=O)c1c(NC(=O)c3ccccc3)ccc(Nc3cccc4c3C(=O)c3ccccc3C4=O)c1C2=O)c1ccccc1`, the T/C by setting is: under setting [1], 100 % of control; under setting [2], 103 % of control; under setting [3], 103 % of control.

Take `CCOC(=O)Nc1ccc2nc(Sc3ccc(C)cc3)sc2c1`: the T/C is 99 % of control under setting [4], 110 % of control under setting [5] and 119 % of control under setting [6].

Consider `COc1cc2c3c4c(ccc3c1OC)CCCN4CC2`, for which the T/C was 99 % of control (dose: 50.0 mg/kg/injection, schedule: Q01DX005 (ip), vehicle: Klucel + Tween-80) and 97 % of control (dose: 100.0 mg/kg/injection, schedule: Q01DX005 (ip), vehicle: Klucel + Tween-80).

Turning to `CCOC(=O)CCCc1ccc(N=NN(C)C)cc1`, the T/C (dose: 66.0 mg/kg/injection, schedule: Q04DX003 (ip), vehicle: saline with Tween-80) is 118 % of control and the T/C under setting [7] was 159 % of control.

Consider `COC(=O)C(CS[C@@H]1CCCC[C@@H]1O)NC(C)=O` (stereo not given in full), for which the T/C (dose: 50.0 mg/kg/injection, schedule: Q01DX005 (ip), vehicle: suspension in saline) was 100 % of control; the T/C (dose: 100.0 mg/kg/injection, schedule: Q01DX005 (ip), vehicle: suspension in saline) is 99 % of control; the T/C (dose: 200.0 mg/kg/injection, schedule: Q01DX005 (ip), vehicle: suspension in saline) is 95 % of control.

On to `O/N=C/C(=Nc1ccc2ccccc2c1)NO`, for which the T/C is 102 % of control (dose: 60.0 mg/kg/injection, schedule: Q01DX005 (ip), vehicle: Klucel (hydroxypropylcellulose) (HPC)); 98 % of control (dose: 120.0 mg/kg/injection, schedule: Q01DX005 (ip), vehicle: Klucel (hydroxypropylcellulose) (HPC)); 98 % of control (dose: 240.0 mg/kg/injection, schedule: Q01DX005 (ip), vehicle: Klucel (hydroxypropylcellulose) (HPC)).

For the molecule `O=C(OCCn1ncnn1)c1ccc([N+](=O)[O-])cc1`, the T/C is 104 % of control (dose: 50.0 mg/kg/injection, schedule: Q01DX005 (ip), vehicle: Klucel (hydroxypropylcellulose) (HPC)); 104 % of control (dose: 100.0 mg/kg/injection, schedule: Q01DX005 (ip), vehicle: Klucel (hydroxypropylcellulose) (HPC)); 95 % of control (dose: 200.0 mg/kg/injection, schedule: Q01DX005 (ip), vehicle: Klucel (hydroxypropylcellulose) (HPC)).

Regarding `COc1ccc(Cn2nnc(C(N)=O)c2NC=O)cc1`, the T/C was 95 % of control under setting [8]; 100 % of control (dose: 200.0 mg/kg/injection, schedule: Q01DX001 (ip), vehicle: Klucel (hydroxypropylcellulose) (HPC)); 100 % of control (dose: 400.0 mg/kg/injection, schedule: Q01DX001 (ip), vehicle: Klucel (hydroxypropylcellulose) (HPC)).

For `CC1=NN(C(=O)c2ccncc2)C(=O)C1N=Nc1ccc(S(=O)(=O)Nc2nc(C)cc(C)n2)cc1` (stereo not given), the T/C is 104 % of control under setting [4], 95 % of control under setting [5] and 95 % of control under setting [6].

Turning to `Cc1cccc(Cl)c1NC(=O)CS`, the T/C is 100 % of control under setting [7]; 104 % of control (dose: 200.0 mg/kg/injection, schedule: Q04DX003 (ip), vehicle: saline with Tween-80); 100 % of control (dose: 400.0 mg/kg/injection, schedule: Q04DX003 (ip), vehicle: saline with Tween-80).

Regarding `CCOC(=O)C1OC1(C(F)(F)F)C(F)(F)F` (stereo not given), the T/C runs as follows: under setting [4], 93 % of control; under setting [5], 98 % of control; under setting [6], 104 % of control.

For the molecule `Cc1cc(OP2(=O)Nc3ccccc3-c3ccccc3N2)ccc1Cl`, the T/C runs as follows: under setting [1], 98 % of control; under setting [2], 89 % of control.

Turning to `CC(C)c1ccc(/C=N\NC(=S)N/N=C\c2ccc(C(C)C)cc2)cc1`, the T/C (dose: 6.25 mg/kg/injection, schedule: Q01DX009 (ip), vehicle: Klucel (hydroxypropylcellulose) (HPC)) was 96 % of control and the T/C (dose: 12.5 mg/kg/injection, schedule: Q01DX009 (ip), vehicle: Klucel (hydroxypropylcellulose) (HPC)) was 86 % of control.

With `NC(=O)c1oc([N+](=O)[O-])c(-c2ccccc2)c1-c1ccccc1`, the T/C is, setting by setting: under setting [1], 99 % of control; under setting [2], 102 % of control; under setting [3], 93 % of control.

In the case of `NC(=O)C1CCCCC1C(N)=O` (stereo not given), the T/C under setting [5] is 100 % of control; the T/C under setting [6] was 104 % of control; the T/C (dose: 400.0 mg/kg/injection, schedule: Q01DX009 (ip), vehicle: saline with Tween-80) is 104 % of control.

As to `Cc1cc2cc(CN)ccc2n1C`, under setting [8], the T/C is 103 % of control.

`COC(=O)C(=O)c1c(C(=O)OC)nc2nnc(N)n2c1-c1ccc(F)cc1`: the T/C is 93 % of control under setting [9], 99 % of control under setting [10], 88 % of control under setting [11] and 93 % of control under setting [12].

In the case of `CNc1onc(C)c1C`, the T/C reads like this: under setting [4], 103 % of control; under setting [5], 105 % of control; under setting [6], 100 % of control.

`Oc1cc2c(cc1C(c1ccc(F)cc1)N1CCCCC1)OCO2` (stereo not given): the T/C by setting is: under setting [10], 111 % of control; under setting [11], 116 % of control; under setting [12], 115 % of control.

Take `CC1=C2C3OC(=O)C(C)C3CCC2(C)CCC1=O` (stereo not given): the T/C (dose: 12.5 mg/kg/injection, schedule: Q04DX002 (ip), vehicle: saline with Tween-80) is 107 % of control; the T/C (dose: 25.0 mg/kg/injection, schedule: Q04DX002 (ip), vehicle: saline with Tween-80) is 91 % of control; the T/C (dose: 50.0 mg/kg/injection, schedule: Q04DX002 (ip), vehicle: saline with Tween-80) was 91 % of control.

Regarding `Cc1cccc(NC(=O)c2ccccc2)n1`, the T/C was 104 % of control (dose: 12.5 mg/kg/injection, schedule: Q04DX003 (ip), vehicle: saline); 100 % of control (dose: 25.0 mg/kg/injection, schedule: Q04DX003 (ip), vehicle: saline); 90 % of control (dose: 50.0 mg/kg/injection, schedule: Q04DX003 (ip), vehicle: saline).

For the molecule `CC1SC(C)C1O` (stereo not given), the T/C (dose: 60.0 mg/kg/injection, schedule: Q01DX005 (ip), vehicle: saline) is 104 % of control; the T/C (dose: 120.0 mg/kg/injection, schedule: Q01DX005 (ip), vehicle: saline) was 108 % of control; the T/C (dose: 240.0 mg/kg/injection, schedule: Q01DX005 (ip), vehicle: saline) is 93 % of control.

Consider `O=C(N/N=C/c1ccc(C(F)(F)F)cc1)c1ccncc1`, for which the T/C is 106 % of control (dose: 15.0 mg/kg/injection, schedule: Q01DX005 (ip), vehicle: saline with Tween-80); 101 % of control under setting [9]; 101 % of control and 97 % of control under setting [10]; 100 % of control under setting [11]; 100 % of control under setting [12].
